These results are taken from patent US20100113550A1, “New Crystal Forms” (BIAL - PORTELA AND CA, S.A., priority 2006, published 2010).

Read-outs that look alike come from different tables or passages of the source. A value given as a limit tells only on which side of the number the result lay.

What all share (assay type): physicochemical
Data set [1] in a line: Approximate solubilities (solvent added until a solution forms). The text has this: Approximate solubilities of compound 1, Form A in aqueous mixtures containing high concentrations of organic solvents are given in Table 1. [table]
The nature of data set [2]: RH stability: storage at controlled relative humidity or drying, checked by XRPD and for deliquescence. The text has this:
Form A samples were stored at lower relative humidities of approximately 9-11, 23 and 32% RH and analyzed by XRPD and Karl-Fischer titration analysis after four weeks (Tables 30 and 31). The samples appeared to be Form A by XRPD. […] Note that the water content in the samples at 23 and 32% RH was slightly higher compared to the initial batch of Form A.
Form X samples were stored at relative humidities of approximately 43, 75 and 90% RH and analyzed by XRPD and Karl-Fischer titration analysis after five weeks (Tables 34 and 35).

Data set [3] is described as follows: Coulometric Karl Fischer titration for water determination. As to the method: Coulometric Karl Fischer (KF) analysis for water determination was performed using a Mettler Toledo DL39 Karl Fischer titrator. Samples were placed in the KF titration vessel containing approximately Hydranal—Coulomat AD and mixed for 60 seconds to ensure dissolution. The sample was then titrated by means of a generator electrode which produces iodine by electrochemical oxidation: 2I−=>I2+2e. Three replicates were obtained to ensure reproducibility. A NIST-traceable water standard (Hydranal Water Standard 10.0) was analyzed to check the operation of the coulometer. Data were collected and analyzed using LabX Pro Titration v2.10.000.

A short description of data set [4]: RH stability: storage at controlled relative humidity or drying, checked by XRPD and for deliquescence. The source holds these as a separate data set.
The nature of data set [5]: Interconversion studies of Forms A and C (slurries, XRPD). The protocol: A slurry of compound 1, Form A, was prepared in a given solvent and loaded on an orbit shaker at either ambient or elevated temperature for at least 1 day. The liquid phase of the slurry was drawn off with a pipette and filtered through a 0.2-μm filter. A slurry containing compound 1 forms A and C was prepared using the filtered liquid phase from the Form A slurry. The mixture was then loaded on an orbit shaker in a sealed vial at either ambient or elevated temperature for 1 or 7 days. The solids were isolated by vacuum filtration or by drawing the liquid phase off with a pipette and allowing the solids to air dry at ambient conditions prior to analysis. The resulting Forms were characterised by XRPD.

Setting [6] is: acetone:water 99:1, hydrochloride.

For the molecule `Cl.NCCc1c[nH]c(=S)n1[C@H]1COc2c(F)cc(F)cc2C1` [Amorphous, (R)-5-(2-Aminoethyl)-1-(6,8-difluorochroman-3-yl)-1,3-dihydroimidazole-2-thione hydrochloride], the solubility is 8 mg/mL in data set [1] (2,2,2-trifluoroethanol, 50 °C, organic solvent or mixture, 2,2,2-trifluoroethanol, 50° C., read-out: Solubility (approximate) at elevated temperature); 11 mg/mL in data set [1] (ethanol, 53 °C, organic solvent or mixture, ethanol, 53° C., read-out: Solubility (approximate) at elevated temperature); below 1 mg/mL in data set [1] (methyl iso-butyl ketone, organic solvent or mixture, methyl iso-butyl ketone, read-out: Solubility (approximate)). Moreover, the “Solubility (approximate)” value is recorded as 8 mg/mL in data set [1] (2,2,2-trifluoroethanol, hydrochloride); 49 mg/mL in data set [1] (acetone, hydrochloride); below 1 mg/mL in data set [1] (acetonitrile); 10 mg/mL in data set [1] (ethanol, hydrochloride); below 1 mg/mL in data set [1] (ethyl acetate); 16 mg/mL in data set [1] (iso-propanol, hydrochloride). Besides, the “Solubility (approximate)” value is recorded as 50 mg/mL in data set [1] (methanol, hydrochloride); 64 mg/mL in data set [1] (methyl ethyl ketone, hydrochloride); 100 mg/mL in data set [1] (tetrahydrofuran (THF), hydrochloride); 36 mg/mL in data set [1] (water, hydrochloride). In data set [1] (comparison between forms, listed as Amorphous material, hydrochloride), the “Solubility compared with the other forms (in words)” value is “higher solubilities in most organic solvents and water compared to Forms A, B, and C”.

For `Cl.NCCc1c[nH]c(=S)n1[C@H]1COc2c(F)cc(F)cc2C1` [Form A, (R)-5-(2-Aminoethyl)-1-(6,8-difluorochroman-3-yl)-1,3-dihydroimidazole-2-thione hydrochloride], the Observations entry in data set [2] (~23% RH, 4 weeks) is given as “looks dry”; in data set [2] (~32% RH, 4 weeks), “looks dry”. Further, the “% water” value in data set [3] (~9-11% RH, 11 days) was 1.70%; in data set [3] (~23% RH, 4 weeks), 2.96%; in data set [3] (~32% RH, 4 weeks), 3.24%. The Moles of water in data set [3] (~9-11% RH, 11 days) came out at 0.33 mol; in data set [3] (~23% RH, 4 weeks), 0.59 mol; in data set [3] (~32% RH, 4 weeks) it was 0.65 mol. For the same molecule, the “Stability at relative humidity” value is “stable” in data set [4] (31% relative humidity, after two weeks) and “stable” in data set [4] (43% relative humidity, after five days). In addition, the “Form conversion under high laboratory humidity” value in data set [4] (typically 43% to 90% relative humidity, within 1 day to 2 weeks) was “converts to Form B”. The solubility was below 24 mg/mL in data set [1] (1,4-dioxane:water 99:1, organic solvent or mixture, 1,4-dioxane:water 99:1, read-out: Solubility (approximate)); above 23 mg/mL in data set [1] (acetone:water 90:10, organic solvent or mixture, acetone:water 90:10 (9:1), read-out: Solubility (approximate)); above 23 mg/mL in data set [1] (acetonitrile:water 90:10, organic solvent or mixture, acetonitrile:water 90:10 (9:1), read-out: Solubility (approximate)); below 23 mg/mL in data set [1] (acetonitrile:water 95:5, organic solvent or mixture, acetonitrile:water 95:5, read-out: Solubility (approximate)); above 21 mg/mL in data set [1] (ethanol:water 90:10, organic solvent or mixture, ethanol:water 90:10 (9:1), read-out: Solubility (approximate)); below 25 mg/mL in data set [1] (ethanol:water 99:1, organic solvent or mixture, ethanol:water 99:1, read-out: Solubility (approximate)). In addition, in data set [1] (setting [6]), the “Solubility (approximate)” value is 1 mg/mL.

For `Cl.NCCc1c[nH]c(=S)n1[C@H]1COc2c(F)cc(F)cc2C1` [Form B, (R)-5-(2-Aminoethyl)-1-(6,8-difluorochroman-3-yl)-1,3-dihydroimidazole-2-thione hydrochloride], the “Stability under high relative humidities” value in data set [2] (high relative humidities, long periods of time) is on record as “remain stable”. In addition, in data set [3] (after 2 days, 3 weeks and 8 weeks at both 75 and 90% RH), the “Change in the water content on storage” value is listed as “No significant changes”. Further, the “% water” value is reported as 5.34% in data set [3] (~55% RH, 8 days); 6.02% in data set [3] (~75% RH, 3 weeks); 6.12% in data set [3] (~75% RH, 8 weeks); 6.23% in data set [3] (~75% RH, 2 days); 5.99% in data set [3] (~90% RH, 3 weeks); 6.46% in data set [3] (~90% RH, 8 weeks). Besides, in data set [3] (~90% RH, 2 days), the “% water” value worked out at 6.70%. The Moles of water amounted to 1.1 mol in data set [3] (~55% RH, 8 days); 1.24 mol in data set [3] (~75% RH, 3 weeks); 1.26 mol in data set [3] (~75% RH, 8 weeks); 1.28 mol in data set [3] (~75% RH, 2 days); 1.23 mol in data set [3] (~90% RH, 3 weeks); 1.33 mol in data set [3] (~90% RH, 8 weeks). Besides, the Moles of water in data set [3] (~90% RH, 2 days) stood at 1.39 mol. Also, the “Stability at relative humidity” value in data set [4] (90% relative humidity) was “stable”. In data set [4] (90% relative humidity, after 10 days), the Deliquescence entry is on record as “no deliquescence was observed”. Further, the “RH stability, XRPD patterns” value in data set [4] (after 2 days, 3, 7 and 8 weeks at both 75 and 90% RH) is given as “did not change”. For the same molecule, the “Form conversion upon desorption (drying)” value in data set [4] (drying) is “convert back to Form A”. Moreover, the “Weight change” value in data set [4] (~55% RH, 8 days) worked out at 10.7 mg; in data set [4] (~75% RH, 2 days), 11.0 mg; in data set [4] (~90% RH, 2 days), 11.6 mg. In addition, the “Weight change, %” value is 9.5% in data set [4] (~55% RH, 8 days); 4.5% in data set [4] (~75% RH, 2 days); 4.6% in data set [4] (~90% RH, 2 days). The Observations result in data set [4] (~55% RH, 8 days (Table 32)) is listed as “looks dry”; in data set [4] (~55% RH, 8 days (Table 33)), “looks dry”; in data set [4] (~75% RH, 3 weeks (Table 32)), “looks dry”; in data set [4] (~75% RH, 3 weeks (Table 33)) it was “looks dry”; in data set [4] (~75% RH, 7 weeks), “looks dry”; in data set [4] (~75% RH, 8 weeks (Table 32)), “looks dry”. Further, the Observations result in data set [4] (~75% RH, 8 weeks (Table 33)) is “looks dry”; in data set [4] (~90% RH, 3 weeks (Table 32)), “looks dry”; in data set [4] (~90% RH, 3 weeks (Table 33)), “looks dry”; in data set [4] (~90% RH, 7 weeks) it was “looks dry”; in data set [4] (~90% RH, 8 weeks (Table 32)), “looks dry”; in data set [4] (~90% RH, 8 weeks (Table 33)), “looks dry”. The “Solubility (approximate)” value in data set [1] (setting [6]) was below 29 mg/mL; in data set [1] (acetone, hydrochloride) it was 2 mg/mL; in data set [1] (acetonitrile:water 95:5, hydrochloride), below 27 mg/mL; in data set [1] (ethanol:water 99:1, hydrochloride) it was below 28 mg/mL; in data set [1] (ethanol, hydrochloride), 4 mg/mL; in data set [1] (methanol, hydrochloride), 15 mg/mL. Also, the “Solubility by kind of solvent (in words)” value in data set [1] (organic solvents and aqueous mixtures, hydrochloride) is “higher solubilities in aqueous solvent mixtures compared to organic solvents”.

Turning to `Cl.NCCc1c[nH]c(=S)n1[C@H]1COc2c(F)cc(F)cc2C1` [Form X, (R)-5-(2-Aminoethyl)-1-(6,8-difluorochroman-3-yl)-1,3-dihydroimidazole-2-thione hydrochloride], the Observations entry in data set [2] (90% RH, 5 weeks (Table 34)) was “looks dry”; in data set [4] (43% RH, 5 weeks (Table 34)) it was “looks dry”; in data set [4] (75% RH, 5 weeks (Table 34)) it was “looks dry”; in data set [4] (~43% RH, 5 weeks (Table 35)) it was “looks dry”; in data set [4] (~43% RH, 7 days), “looks dry”; in data set [4] (~75% RH, 5 weeks (Table 35)), “looks dry”. Further, the Observations result was “looks dry” in data set [4] (~75% RH, 7 days); “looks dry” in data set [4] (~90% RH, 5 weeks (Table 35)); “looks dry” in data set [4] (~90% RH, 7 days). The “Form conversion at high relative humidity” value in data set [2] (90% RH, after 4 days and 5 weeks) is listed as “converted to Form B”. Besides, the “% water” value in data set [3] (43% RH, 5 weeks) amounted to 5.52%; in data set [3] (75% RH, 5 weeks) it was 8.74%; in data set [3] (90% RH, 5 weeks) it was 6.47%. For the same molecule, the Moles of water in data set [3] (43% RH, 5 weeks) was 1.13 mol; in data set [3] (75% RH, 5 weeks) it was 1.85 mol; in data set [3] (90% RH, 5 weeks), 1.34 mol. Further, the “Change by XRPD on drying” value in data set [4] (after 6 days and 2 weeks of drying at approximately 70° C.) is “did not change”. In addition, the “Weight change” value in data set [4] (~43% RH, 7 days) is reported as 1.2 mg; in data set [4] (~75% RH, 7 days), 2.4 mg; in data set [4] (~90% RH, 1 day) it was 2.3 mg; in data set [4] (~90% RH, 7 days), 0.9 mg. The “Weight change, %” value in data set [4] (~43% RH, 7 days) is 3.4%; in data set [4] (~75% RH, 7 days), 6.0%; in data set [4] (~90% RH, 1 day) it was 5.6%; in data set [4] (~90% RH, 7 days) it was 2.1%.

`Cl.NCCc1c[nH]c(=S)n1[C@H]1COc2c(F)cc(F)cc2C1` [Forms A and C, (R)-5-(2-Aminoethyl)-1-(6,8-difluorochroman-3-yl)-1,3-dihydroimidazole-2-thione hydrochloride]: the “Form resulting from interconversion slurry” value in data set [5] (1-day slurries at room temperature, ethanol and acetone:water 99:1) is “mixture of Forms C and B, with Form B as a minor component”; in data set [5] (acetone:water 99:1, 40° C., 1-day slurry), “mixture of Forms C and A, with Form A as a minor component”; in data set [5] (after one week, ambient temperature and 40° C.), “Form C”; in data set [5] (ethanol, 40° C., 1-day slurry), “Form C”.

In general, solubility refers to how much of the substance goes into solution per volume.
